In ChEMBL document CHEMBL1201862, “PubChem BioAssay data set” (2004):
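In this assay, cells in 96-well plates receive the compound at five concentrations for 48 hours. Endpoints are linearly interpolated between the surrounding concentrations. GI50 = concentration required for 50% inhibition of growth.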 Active and inactive are the calls of the source. Cut-off read from the data, not from the text of the source: active = GI50 up to about 1.1 µM and inactive = higher.

How the values were obtained:
Assay in all cases: inhibition of tumour cell growth, NCI panel, 48 h
[1] = tested on: OVCAR-8
[2] = tested on: HCT-15
[3] = tested on: M14
[4] = tested on: SN12C
[5] = tested on: LOX IMVI
[6] = tested on: UO-31
[7] = tested on: SNB-75
[8] = tested on: RPMI-8226
[9] = tested on: SW-620
[10] = tested on: NCI-H23
[11] = tested on: CCRF-CEM
[12] = tested on: MDA-MB-231
[13] = tested on: MOLT-4
[14] = tested on: HCC 2998
[15] = tested on: HOP-62
[16] = tested on: COLO 205
[17] = tested on: ACHN
[18] = tested on: A498
[19] = tested on: NCI-H460
[20] = tested on: HOP-92

Compound	GI50 [1]	GI50 [2]	GI50 [3]	GI50 [4]	GI50 [5]	GI50 [6]	GI50 [7]	GI50 [8]	GI50 [9]	GI50 [10]	GI50 [11]	GI50 [12]	GI50 [13]	GI50 [14]	GI50 [15]	GI50 [16]	GI50 [17]	GI50 [18]	GI50 [19]	GI50 [20]
Nc1nc2c(c(=O)[nH]1)N=C(COP(=O)(O)OP(=O)(O)O)CN2	> 100 µM (inactive)	> 100 µM	> 100 µM (inactive)	> 100 µM (inactive)	> 100 µM (inactive)	> 100 µM (inactive)	> 100 µM (inactive)	> 100 µM (inactive)	> 100 µM (inactive)	> 100 µM (inactive)	> 100 µM (inactive)	> 100 µM (inactive)	> 100 µM (inactive)	> 100 µM (inactive)	> 100 µM (inactive)	> 100 µM (inactive)	> 100 µM (inactive)	> 100 µM (inactive)		
CCON=C1C(C)(C)C(C)(C)C(C)(C)C1(C)C	> 100 µM (inactive)	> 100 µM	> 100 µM (inactive)	> 100 µM (inactive)	> 100 µM (inactive)		> 100 µM (inactive)	> 100 µM (inactive)	> 100 µM (inactive)	> 100 µM (inactive)	> 100 µM (inactive)	> 100 µM (inactive)	> 100 µM (inactive)		> 100 µM (inactive)	> 100 µM (inactive)	> 100 µM (inactive)	> 100 µM (inactive)	> 100 µM (inactive)	> 100 µM (inactive)
CN1CN(c2ccccc2)C2(CCN(CCCSc3ccccc3NC(=O)/C=C/c3ccccc3)CC2)C1=O	6.19 µM (inactive)	6.92 µM	1.71 µM (inactive)	3.39 µM (inactive)	2.25 µM (inactive)	2.99 µM (inactive)	5.52 µM (inactive)	1.89 µM (inactive)	6.25 µM (inactive)	4.61 µM (inactive)	2.93 µM (inactive)	1.73 µM (inactive)	2 µM (inactive)	4.84 µM (inactive)	2.83 µM (inactive)	2.01 µM (inactive)	2.4 µM (inactive)	2.75 µM (inactive)	4.05 µM (inactive)	
Cc1c(C(=O)O)sc2nc[nH]c(=O)c12	> 100 µM (inactive)	> 100 µM	> 100 µM (inactive)	> 100 µM (inactive)	> 100 µM (inactive)	> 100 µM (inactive)	49.8 µM (inactive)	> 100 µM (inactive)	> 100 µM (inactive)	> 100 µM (inactive)		> 100 µM (inactive)	> 100 µM (inactive)	> 100 µM (inactive)	> 100 µM (inactive)	> 100 µM (inactive)	> 100 µM (inactive)		> 100 µM (inactive)	67.1 µM (inactive)
NNC(=O)CC(=O)Nc1ccccc1Cl	> 100 µM (inactive)	> 100 µM		> 100 µM (inactive)	> 100 µM (inactive)	> 100 µM (inactive)	> 100 µM (inactive)	> 100 µM (inactive)	> 100 µM (inactive)	> 100 µM (inactive)	> 100 µM (inactive)	> 100 µM (inactive)	> 100 µM (inactive)		> 100 µM (inactive)	> 100 µM (inactive)	> 100 µM (inactive)	> 100 µM (inactive)	> 100 µM (inactive)	> 100 µM (inactive)
O=C1CSC(c2cccc(Cl)c2)N1c1c(O)c(Cl)cc(Br)c1Cl (stereo unspecified)		15 µM	> 100 µM (inactive)	58.5 µM (inactive)	16.3 µM (inactive)	15.6 µM (inactive)	29.4 µM (inactive)	15.9 µM (inactive)	17.2 µM (inactive)	27.7 µM (inactive)	19.8 µM (inactive)	14 µM (inactive)	23.6 µM (inactive)		> 100 µM (inactive)	23.5 µM (inactive)	14.8 µM (inactive)	> 100 µM (inactive)	> 100 µM (inactive)	15.1 µM (inactive)
CC(=O)N(C(C)=O)n1c(Cc2ccc(Cl)cc2)nn(C(C)=O)c1=O	> 100 µM (inactive)	> 100 µM	> 100 µM (inactive)	> 100 µM (inactive)	> 100 µM (inactive)	> 100 µM (inactive)	> 100 µM (inactive)	> 100 µM (inactive)	> 100 µM (inactive)	> 100 µM (inactive)	> 100 µM (inactive)	> 100 µM (inactive)	> 100 µM (inactive)	> 100 µM (inactive)	> 100 µM (inactive)	> 100 µM (inactive)	> 100 µM (inactive)	> 100 µM (inactive)	> 100 µM (inactive)	
CCOC(=O)c1c(-c2ccc(OC)cc2)c(C#N)c(=S)n(C2OC(COC(C)=O)C(OC(C)=O)C(OC(C)=O)C2OC(C)=O)c1-c1ccccc1 (stereo unspecified)		> 100 µM	> 100 µM (inactive)	> 100 µM (inactive)	> 100 µM (inactive)	> 100 µM (inactive)	60 µM (inactive)	> 100 µM (inactive)	> 100 µM (inactive)	> 100 µM (inactive)	> 100 µM (inactive)	> 100 µM (inactive)	> 100 µM (inactive)	> 100 µM (inactive)	> 100 µM (inactive)		> 100 µM (inactive)		> 100 µM (inactive)	17.8 µM (inactive)
Cc1c(CCN2CCOCC2)c(N2CCOCC2)n2c(nc3ccccc32)c1C#N	> 10 µM (inactive)	> 10 µM	> 10 µM (inactive)	> 10 µM (inactive)	> 10 µM (inactive)	> 10 µM (inactive)	> 10 µM (inactive)	> 10 µM (inactive)	> 10 µM (inactive)	> 10 µM (inactive)	> 10 µM (inactive)	> 10 µM (inactive)	> 10 µM (inactive)		> 10 µM (inactive)	> 10 µM (inactive)	> 10 µM (inactive)	6.31 µM (inactive)	> 10 µM (inactive)	> 10 µM (inactive)
COc1ccc(/C=C2\CSC/C(=C\c3ccc(OC)c(OC)c3OC)C2=O)c(OC)c1OC	24.1 µM (inactive)	25.6 µM	18.5 µM (inactive)	24.2 µM (inactive)	23.4 µM (inactive)	> 100 µM (inactive)		16.4 µM (inactive)	20.6 µM (inactive)	43.5 µM (inactive)	12.9 µM (inactive)	66.4 µM (inactive)	> 10 µM (inactive)	> 10 µM (inactive)	60.8 µM (inactive)	37.9 µM (inactive)	16.9 µM (inactive)		34.5 µM (inactive)	35.6 µM (inactive)
Cn1c2ccccc2c2cc(N3CCCC3)c3c(c21)C(=O)N(c1ccccc1)C3=O	> 100 µM (inactive)	> 100 µM	> 100 µM (inactive)	> 100 µM (inactive)	> 100 µM (inactive)	> 100 µM (inactive)	38.4 µM (inactive)	> 100 µM (inactive)	> 100 µM (inactive)	> 100 µM (inactive)	> 100 µM (inactive)	66.4 µM (inactive)	> 100 µM (inactive)	> 100 µM (inactive)	60.8 µM (inactive)	> 100 µM (inactive)	> 100 µM (inactive)	> 100 µM (inactive)	> 100 µM (inactive)	
COC(=O)[C@@H](Cc1ccccc1)NNC(=O)OC(C)(C)C	> 100 µM (inactive)	> 100 µM		> 100 µM (inactive)	> 100 µM (inactive)			> 100 µM (inactive)	> 100 µM (inactive)	> 100 µM (inactive)	> 100 µM (inactive)	> 100 µM (inactive)	> 100 µM (inactive)	> 100 µM (inactive)	> 100 µM (inactive)	> 100 µM (inactive)	> 100 µM (inactive)	> 100 µM (inactive)	> 100 µM (inactive)	
CC(C)C1=CC23CCC4C(C)(C(=O)O)CCCC4(C)C2CC1C(C(=O)O)C3C(=O)O (stereo unspecified)	> 100 µM (inactive)	> 100 µM	> 100 µM (inactive)	> 100 µM (inactive)	> 100 µM (inactive)	> 100 µM (inactive)	> 100 µM (inactive)		> 100 µM (inactive)	> 100 µM (inactive)	> 100 µM (inactive)	> 100 µM (inactive)	> 100 µM (inactive)		> 100 µM (inactive)		> 100 µM (inactive)	> 100 µM (inactive)	> 100 µM (inactive)	> 100 µM (inactive)
CN(Cc1cnc2nc(N)nc(N)c2n1)c1ccc(C(=O)NCCS(=O)(=O)O)cc1	> 100 µM (inactive)	> 100 µM	> 100 µM (inactive)	> 100 µM (inactive)	> 100 µM (inactive)	> 100 µM (inactive)	> 100 µM (inactive)	> 100 µM (inactive)	> 100 µM (inactive)	> 100 µM (inactive)		> 100 µM (inactive)	> 100 µM (inactive)	> 100 µM (inactive)	> 100 µM (inactive)	> 100 µM (inactive)	> 100 µM (inactive)	> 100 µM (inactive)	> 100 µM (inactive)	
COC(=O)NCCc1n[nH]c2c1C(=O)C=C(OC)C2=O	22 µM (inactive)	28.4 µM	19.7 µM (inactive)	20.3 µM (inactive)	17.8 µM (inactive)	24.3 µM (inactive)	19.2 µM (inactive)	24.5 µM (inactive)	22.6 µM (inactive)	20 µM (inactive)	21.1 µM (inactive)	16.1 µM (inactive)	19.9 µM (inactive)	> 100 µM (inactive)	20.9 µM (inactive)	24.8 µM (inactive)	19.1 µM (inactive)		> 100 µM (inactive)	21.5 µM (inactive)
